Experimental data published in patent US9695155B2, “Herbicidal substituted pyrimidinyloxy benzene compounds” (E. I. DU PONT DE NEMOURS AND COMPANY, priority 2013, dated 2017).

How the values were obtained:
barnyardgrass [1] = test: Test A postemergence; type: in vivo, Echinochloa crus-galli; conditions: Echinochloa crus-galli, post-emergence, 240 h
Outline: (§1)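 Scoring: eye-based comparison with untreated controls, 0 for no effect through 100 for complete control, at about day 10. Treatments: directed soil spray preemergence; foliar spray postemergence on 2–10 cm plants at the one- to two-leaf stage. Medium: loam soil with sand.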

large (Lg) crabgrass = test: Test A postemergence; type: in vivo, Digitaria sanguinalis; conditions: Digitaria sanguinalis, post-emergence, 240 h
Outline: as §1

giant foxtail [2] = test: Test A postemergence; type: in vivo, Setaria faberii; conditions: Setaria faberi, post-emergence, 240 h
Outline: as §1

morningglory [3] = test: Test A postemergence; type: in vivo, Ipomoea spp.; conditions: Ipomoea, post-emergence, 240 h
Outline: as §1

velvetleaf [4] = test: Test A postemergence; type: in vivo, Abutilon theophrasti; conditions: Abutilon theophrasti, post-emergence, 240 h
Outline: as §1

corn = test: Test A postemergence; type: in vivo, Zea mays; conditions: Zea mays, post-emergence, 240 h
Outline: as §1

Heteranthera limosa = test: Test B flooded paddy test; type: in vivo; conditions: Heteranthera limosa, Flood, 250 g ai/ha; 0 to 100 scale where 0 is no effect and 100 is complete control; read-out: Plant response rating, Ducksalad
Outline: (§2)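 Plants at 2-leaf stage; pots flooded to 3 cm above soil and compound applied directly into paddy water, depth held throughout. After 13 to 15 days in greenhouse, visual rating versus controls on 0 (no effect) to 100 (complete control) scale.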

barnyardgrass [5] = test: Test B flooded paddy test; type: in vivo, Echinochloa crus-galli; conditions: Echinochloa crus-galli; Flood, 250 g ai/ha; 0 to 100 scale where 0 is no effect and 100 is complete control; read-out: Plant response rating, Barnyardgrass
Outline: as §2

wheat, winter = test: Test C preemergence; type: in vivo, Triticum aestivum; conditions: Triticum aestivum, pre-emergence
Outline: (§3)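 Seeds were sown in loam–sand blend and sprayed preemergence, while plants at 1- to 4-leaf stage (2–18 cm) in peat-based medium received postemergence sprays; test chemicals were formulated in a non-phytotoxic solvent with surfactant. After 13–15 days in a greenhouse, injury was rated visually against controls, 0 (no effect) to 100 (complete control).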

giant foxtail [6] = test: Test C preemergence; type: in vivo, Setaria faberii; conditions: Setaria faberi, pre-emergence
Outline: as §3

yellow nutsedge = test: Test C preemergence; type: in vivo, Cyperus esculentus; conditions: Cyperus, pre-emergence
Outline: as §3

pigweed = test: Test C preemergence; type: in vivo, Amaranthus retroflexus; conditions: Amaranthus retroflexus, pre-emergence
Outline: as §3

velvetleaf [7] = test: Test C preemergence; type: in vivo, Abutilon theophrasti; conditions: Abutilon theophrasti, pre-emergence
Outline: as §3

galium = test: Test C postemergence; type: in vivo, Galium aparine; conditions: Galium, post-emergence
Outline: as §3

morningglory [8] = test: Test C postemergence; type: in vivo, Ipomoea coccinea; conditions: Ipomoea, post-emergence
Outline: as §3

chickweed = test: Test C postemergence; type: in vivo, Stellaria media; conditions: Stellaria media, post-emergence
Outline: as §3

Clc1cnc(Oc2ccccc2-n2cc(Br)cn2)nc1 [Compound 7, 2-[2-(4-bromo-1H-pyrazol-1-yl)phenoxy]-5-chloropyrimidine]
pest or weed control at 125 g/ha (barnyardgrass [1]; 125 g ai/ha, 0 to 100 scale where 0 is no effect and 100 is complete control, read-out: Plant response rating, Barnyardgrass): 90% | pest or weed control at 500 g/ha (barnyardgrass [1]; 500 g ai/ha, 0 to 100 scale, 0 no effect, 100 complete control, read-out: Plant response rating Barnyardgrass): 100% | pest or weed control at 125 g/ha (large (Lg) crabgrass; 125 g ai/ha, 0 to 100 scale where 0 is no effect and 100 is complete control, read-out: Plant response rating, Crabgrass, Large): 80% | pest or weed control at 500 g/ha (large (Lg) crabgrass; 500 g ai/ha, 0 to 100 scale, 0 no effect, 100 complete control, read-out: Plant response rating Crabgrass, Large): 100% | pest or weed control at 125 g/ha (giant foxtail [2]; 125 g ai/ha, 0 to 100 scale where 0 is no effect and 100 is complete control, read-out: Plant response rating, Foxtail, Giant): 90% | pest or weed control at 500 g/ha (giant foxtail [2]; 500 g ai/ha, 0 to 100 scale, 0 no effect, 100 complete control, read-out: Plant response rating Foxtail, Giant): 100% | pest or weed control at 125 g/ha (morningglory [3]; 125 g ai/ha, 0 to 100 scale where 0 is no effect and 100 is complete control, read-out: Plant response rating, Morningglory): 70% | pest or weed control at 500 g/ha (morningglory [3]; 500 g ai/ha, 0 to 100 scale, 0 no effect, 100 complete control, read-out: Plant response rating Morningglory): 100% | pest or weed control at 125 g/ha (velvetleaf [4]; 125 g ai/ha, 0 to 100 scale where 0 is no effect and 100 is complete control, read-out: Plant response rating, Velvetleaf): 100% | pest or weed control at 500 g/ha (velvetleaf [4]; 500 g ai/ha, 0 to 100 scale, 0 no effect, 100 complete control, read-out: Plant response rating Velvetleaf): 100% | Corn plant response rating (crop injury, 0 = no effect, 100 = complete kill) at 125 g/ha (corn; 125 g ai/ha, 0 to 100 scale where 0 is no effect and 100 is complete control): 30% | plant injury at 500 g/ha (corn; 500 g ai/ha, 0 to 100 scale, 0 no effect, 100 complete control, read-out: Plant response rating Corn): 50% | pest or weed control at 250 g/ha (Heteranthera limosa): 80% | pest or weed control at 250 g/ha (barnyardgrass [5]): 30% | plant injury at 62 g/ha (wheat, winter; 62 g ai/ha, preemergence, scale 0 (no effect) to 100 (complete control), read-out: Wheat plant response rating): 5% | plant injury at 125 g/ha (wheat, winter; 125 g ai/ha, preemergence, scale 0 (no effect) to 100 (complete control), read-out: Wheat plant response rating): 10% | plant injury at 250 g/ha (wheat, winter; 250 g ai/ha, preemergence, scale 0 (no effect) to 100 (complete control), read-out: Wheat plant response rating): 40% | plant injury at 31 g/ha (wheat, winter; Preemergence, 31 g ai/ha, scale 0 to 100, 0 no effect, 100 complete control, read-out: Plant response rating, Wheat): 0% | pest or weed control at 62 g/ha (giant foxtail [6]; 62 g ai/ha, preemergence, scale 0 (no effect) to 100 (complete control), read-out: Foxtail, Giant plant response rating): 80% | pest or weed control at 125 g/ha (giant foxtail [6]; 125 g ai/ha, preemergence, scale 0 (no effect) to 100 (complete control), read-out: Foxtail, Giant plant response rating): 98% | pest or weed control at 250 g/ha (giant foxtail [6]; 250 g ai/ha, preemergence, scale 0 (no effect) to 100 (complete control), read-out: Foxtail, Giant plant response rating): 100% | pest or weed control at 31 g/ha (giant foxtail [6]; Preemergence, 31 g ai/ha, scale 0 to 100, 0 no effect, 100 complete control, read-out: Plant response rating, Foxtail, Giant): 40% | pest or weed control at 62 g/ha (yellow nutsedge; 62 g ai/ha, preemergence, scale 0 (no effect) to 100 (complete control), read-out: Nutsedge, Yellow plant response rating): 0% | pest or weed control at 125 g/ha (yellow nutsedge; 125 g ai/ha, preemergence, scale 0 (no effect) to 100 (complete control), read-out: Nutsedge, Yellow plant response rating): 15% | pest or weed control at 250 g/ha (yellow nutsedge; 250 g ai/ha, preemergence, scale 0 (no effect) to 100 (complete control), read-out: Nutsedge, Yellow plant response rating): 15% | pest or weed control at 31 g/ha (yellow nutsedge; Preemergence, 31 g ai/ha, scale 0 to 100, 0 no effect, 100 complete control, read-out: Plant response rating, Nutsedge, Yellow): 0% | pest or weed control at 62 g/ha (pigweed; 62 g ai/ha, preemergence, scale 0 (no effect) to 100 (complete control), read-out: Pigweed plant response rating): 100% | pest or weed control at 125 g/ha (pigweed; 125 g ai/ha, preemergence, scale 0 (no effect) to 100 (complete control), read-out: Pigweed plant response rating): 100% | pest or weed control at 250 g/ha (pigweed; 250 g ai/ha, preemergence, scale 0 (no effect) to 100 (complete control), read-out: Pigweed plant response rating): 100% | pest or weed control at 31 g/ha (pigweed; Preemergence, 31 g ai/ha, scale 0 to 100, 0 no effect, 100 complete control, read-out: Plant response rating, Pigweed): 100% | pest or weed control at 62 g/ha (velvetleaf [7]; 62 g ai/ha, preemergence, scale 0 (no effect) to 100 (complete control), read-out: Velvetleaf plant response rating): 100% | pest or weed control at 125 g/ha (velvetleaf [7]; 125 g ai/ha, preemergence, scale 0 (no effect) to 100 (complete control), read-out: Velvetleaf plant response rating): 100% | pest or weed control at 250 g/ha (velvetleaf [7]; 250 g ai/ha, preemergence, scale 0 (no effect) to 100 (complete control), read-out: Velvetleaf plant response rating): 100% | pest or weed control at 31 g/ha (velvetleaf [7]; Preemergence, 31 g ai/ha, scale 0 to 100, 0 no effect, 100 complete control, read-out: Plant response rating, Velvetleaf): 40% | pest or weed control at 125 g/ha (galium; 125 g ai/ha, postemergence, read-out: Plant response rating (0 to 100), Galium): 90% | pest or weed control at 250 g/ha (galium; 250 g ai/ha, postemergence, read-out: Plant response rating (0 to 100), Galium): 98% | pest or weed control at 31 g/ha (galium; Postemergence, 31 g ai/ha, scale 0 to 100 (0 no effect, 100 complete control), 13 to 15 days, read-out: Plant response rating, Galium): 65% | pest or weed control at 62 g/ha (galium; Postemergence, 62 g ai/ha, scale 0 to 100 (0 no effect, 100 complete control), read-out: Plant response rating, Galium): 80% | pest or weed control at 125 g/ha (morningglory [8]; 125 g ai/ha, postemergence, read-out: Plant response rating (0 to 100), Morningglory): 95% | pest or weed control at 31 g/ha (morningglory [8]; Postemergence, 31 g ai/ha, scale 0 to 100 (0 no effect, 100 complete control), 13 to 15 days, read-out: Plant response rating, Morningglory): 75% | pest or weed control at 62 g/ha (morningglory [8]; Postemergence, 62 g ai/ha, scale 0 to 100 (0 no effect, 100 complete control), read-out: Plant response rating, Morningglory): 80% | pest or weed control at 125 g/ha (chickweed; 125 g ai/ha, postemergence, read-out: Plant response rating (0 to 100), Chickweed): 90% | pest or weed control at 250 g/ha (chickweed; 250 g ai/ha, postemergence, read-out: Plant response rating (0 to 100), Chickweed): 98% | pest or weed control at 31 g/ha (chickweed; Postemergence, 31 g ai/ha, scale 0 to 100 (0 no effect, 100 complete control), 13 to 15 days, read-out: Plant response rating, Chickweed): 80%
